Columns and labels:
Assay type in all cases: cell-based
[1] = system: alpha-smooth muscle actin (α-SMA); experiment: Inhibition of TGF-β induced expression of alpha-smooth muscle actin (α-SMA) in CFSC cells (western blot); conditions: compound at 10 μM, TGF-β (10 ng/mL), 24 hours, band intensity vs TGF-β only
How it was run: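 Values are percent reduction of α-SMA band intensity relative to cells given TGF-β alone, quantified by Western blot densitometry with β-actin probed. Compound was applied at 10 μM alongside 10 ng/mL TGF-β to serum-free CFSC cultures for 24 h at 37 °C.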

[2] = system: MDA-MB-231 (breast cancer); experiment: Antiproliferative activity (CCK-8 cell viability), MDA-MB-231; conditions: Homo sapiens, 72 h, read-out: Antiproliferative activity in cancerous cells, MDA-MB-231 (inhibition of cell growth); for inhibition at 3.3 µM: Compound concentration: 3.3 μM; for inhibition at 10 µM: Compound concentration: 10 μM
How it was run: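 MDA-MB-231 breast cancer cells, grown in DMEM with 10% FBS, were plated in 96-well plates at 2,000-5,000 cells/well. Once attached, they were exposed to compound and incubated at 37° C. for 72 h. Viability was then measured with CCK-8 (10 μL per well, 4 h at 37° C.) by absorbance at 450 nm, relative to DMSO vehicle wells.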

HepG2 (liver cancer) = experiment: Antiproliferative activity (CCK-8 cell viability), HepG2; conditions: Homo sapiens, 72 h; for inhibition at 3.3 µM: Compound concentration: 3.3 μM; for inhibition at 3.3 µM / inhibition at 10 µM: read-out: Antiproliferative activity in cancerous cells, HepG2 (inhibition of cell growth); for inhibition at 10 µM: Compound concentration: 10 μM
How it was run: (§1)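 Cells grown in DMEM (HepG2, SW480), MEM (HeLa) or F-12K (A549), each with 10% FBS, then exposed to compound at 3.3, 10 or 30 μM for 72 h at 37 °C. CCK-8 absorbance at 450 nm; viability expressed as percent of DMSO-treated cells, graded as growth inhibition bands.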

SW480 (colon cancer) = experiment: Antiproliferative activity (CCK-8 cell viability), SW480; conditions: Homo sapiens, 72 h; for inhibition at 3.3 µM: Compound concentration: 3.3 μM; for inhibition at 3.3 µM / inhibition at 10 µM: read-out: Antiproliferative activity in cancerous cells, SW480 (inhibition of cell growth); for inhibition at 10 µM: Compound concentration: 10 μM
How it was run: as §1

[3] = system: B16F10 (malignant melanoma); experiment: Antiproliferative activity (CCK-8 cell viability), B16F10; conditions: Mus musculus, 72 h; for inhibition at 3.3 µM: B16-F10, Compound concentration: 3.3 μM; for inhibition at 3.3 µM / inhibition at 10 µM: read-out: Antiproliferative activity in cancerous cells, B16F10 (inhibition of cell growth); for inhibition at 10 µM: B16-F10, Compound concentration: 10 μM
How it was run: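 B16F10 melanoma cells grown in DMEM with 10% FBS were plated in 96-well plates at 2,000-5,000 cells/well. After attachment they were exposed to compound in medium for 72 h at 37° C. CCK-8 solution (10 μL) was then added, and after 4 h at 37° C absorbance was read at 450 nm.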

[4] = system: A431 (epidermoid carcinoma); experiment: Antiproliferative activity (CCK-8 cell viability), A431; conditions: Homo sapiens, 72 h; for inhibition at 3.3 µM: A-431, Compound concentration: 3.3 μM; for inhibition at 3.3 µM / inhibition at 10 µM: read-out: Antiproliferative activity in cancerous cells, A431 (inhibition of cell growth); for inhibition at 10 µM: A-431, Compound concentration: 10 μM
How it was run: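 A431 epidermoid carcinoma cells grown in DMEM with 10% FBS were plated at 2,000-5,000 cells/well in 96-well plates. After attachment they were exposed to compound at 3.3 μM, 10 μM, or 30 μM for 72 h at 37° C. Viability was then assessed by CCK-8 against DMSO vehicle-treated wells.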

[5] = system: A549 (lung adenocarcinoma); experiment: Antiproliferative activity (CCK-8 cell viability), A549; conditions: Homo sapiens, 72 h; for inhibition at 3.3 µM: Compound concentration: 3.3 μM; for inhibition at 3.3 µM / inhibition at 10 µM: read-out: Antiproliferative activity in cancerous cells, A549 (inhibition of cell growth); for inhibition at 10 µM: Compound concentration: 10 μM
How it was run: as §1

HeLa (cervical cancer) = experiment: Antiproliferative activity (CCK-8 cell viability), HeLa; conditions: Homo sapiens, 72 h, read-out: Antiproliferative activity in cancerous cells, HELA (inhibition of cell growth); for inhibition at 3.3 µM: Compound concentration: 3.3 μM; for inhibition at 10 µM: Compound concentration: 10 μM
How it was run: as §1

| Structure (SMILES) | inhibition at 10 µM [1] | inhibition at 3.3 µM [2] | inhibition at 10 µM [2] | inhibition at 3.3 µM (HepG2 (liver cancer)) | inhibition at 10 µM (HepG2 (liver cancer)) | inhibition at 3.3 µM (SW480 (colon cancer)) | inhibition at 10 µM (SW480 (colon cancer)) | inhibition at 3.3 µM [3] | inhibition at 10 µM [3] | inhibition at 3.3 µM [4] | inhibition at 10 µM [4] | inhibition at 3.3 µM [5] | inhibition at 10 µM [5] | inhibition at 3.3 µM (HeLa (cervical cancer)) | inhibition at 10 µM (HeLa (cervical cancer)) | inhibition at 30 µM (HepG2 (liver cancer); Compound concentration: 30 μM, read-out: Antiproliferative activity in cancerous cells, HepG2) | inhibition at 30 µM (SW480 (colon cancer); Compound concentration: 30 μM, read-out: Antiproliferative activity in cancerous cells, SW480) | inhibition at 30 µM ([3]; B16-F10, Compound concentration: 30 μM, read-out: Antiproliferative activity in cancerous cells, B16F10) | inhibition at 30 µM ([4]; A-431, Compound concentration: 30 μM, read-out: Antiproliferative activity in cancerous cells, A431) | inhibition at 30 µM ([5]; Compound concentration: 30 μM, read-out: Antiproliferative activity in cancerous cells, A549) |
| --- | --- | --- | --- | --- | --- | --- | --- | --- | --- | --- | --- | --- | --- | --- | --- | --- | --- | --- | --- | --- |
| O=C(O)CC1=C(Cc2ccc(Oc3ccc(F)cc3)cc2)/C(=C/c2ccc(N3CCOCC3)cc2)c2ccc(F)cc21 [A102, (Z)-2-(5-Fluoro-2-(4-(4-fluorophenoxy)benzyl)-1-(4-morpholinobenzylidene)-1H-inden-3-yl)acetic acid] | > 80% | ≥ 50% | ≥ 50% | ≥ 50% | ≥ 50% | ≥ 50% | ≥ 50% | ≥ 50% | ≥ 50% | ≥ 50% | ≥ 50% | ≥ 50% | ≥ 50% | ≥ 50% | ≥ 50% |  |  |  |  |  |
| CC1=C(CC(=O)O)c2cc(F)ccc2/C1=C\c1ccccc1OCc1ccccc1 [B28, (Z)-2-(1-(2-(Benzyloxy)benzylidene)-5-fluoro-2-methyl-1H-inden-3-yl)acetic acid] | > 80% | 30 to 50% | ≥ 50% | ≥ 50% | ≥ 50% | 30 to 50% | ≥ 50% | < 30% | 30 to 50% | ≥ 50% | ≥ 50% | 30 to 50% | ≥ 50% | ≥ 50% | ≥ 50% |  |  |  |  |  |
| CCc1ccc2c(c1)C(CC(=O)O)=C(C)/C2=C/c1cccc(Oc2ccccc2)c1 [C18, (Z)-2-(5-Ethyl-2-methyl-1-(3-phenoxybenzylidene)-1H-inden-3-yl)acetic acid] | < 30% | 30 to 50% | ≥ 50% | 30 to 50% | ≥ 50% | ≥ 50% | ≥ 50% | ≥ 50% | ≥ 50% | ≥ 50% | ≥ 50% | 30 to 50% | ≥ 50% | < 30% | 30 to 50% |  |  |  |  |  |
| CCC1=C(CC(=O)O)c2cc(F)ccc2/C1=C\c1ccc(COc2ccccc2)cc1 [A2, (Z)-2-(2-Ethyl-5-fluoro-1-(4-(phenoxymethyl)benzylidene)-1H-inden-3-yl)acetic acid] | > 80% | ≥ 50% | ≥ 50% | 30 to 50% | ≥ 50% | < 30% | < 30% | 30 to 50% | ≥ 50% | < 30% | 30 to 50% | 30 to 50% | ≥ 50% | 30 to 50% | ≥ 50% |  |  |  |  |  |
| CCC1=C(CC(=O)O)c2cc(F)ccc2/C1=C\c1cccc(COc2ccccc2)c1 [A5, (Z)-2-(2-Ethyl-5-fluoro-1-(3-(phenoxymethyl)benzylidene)-1H-inden-3-yl)acetic acid] | > 80% | ≥ 50% | ≥ 50% | 30 to 50% | ≥ 50% | < 30% | ≥ 50% | 30 to 50% | ≥ 50% | < 30% | ≥ 50% | 30 to 50% | ≥ 50% | 30 to 50% | ≥ 50% |  |  |  |  |  |
| O=C(O)CC1=C/C(=C/c2cccc(Oc3ccccc3)c2)c2cc(OCC(F)(F)F)ccc21 [C15, (Z)-2-(1-(3-Phenoxybenzylidene)-6-(2,2,2-trifluoroethoxy)-1H-inden-3-yl)acetic acid] | < 30% | 30 to 50% | ≥ 50% | < 30% | < 30% | < 30% | < 30% | < 30% | < 30% | < 30% | < 30% | < 30% | < 30% | < 30% | 30 to 50% | 30 to 50% | < 30% | 30 to 50% | < 30% | < 30% |
| O=C(O)CC1=C(Cc2ccc(C(F)(F)F)cc2)/C(=C/c2ccc(Oc3ccc(F)cc3)cc2)c2ccc(F)cc21 [C11, (Z)-2-(5-Fluoro-1-(4-(4-fluorophenoxy)benzylidene)-2-(4-(trifluoromethyl)-benzyl)-1H-inden-3-yl)acetic acid] | > 80% | ≥ 50% | ≥ 50% | ≥ 50% | ≥ 50% | ≥ 50% | ≥ 50% | ≥ 50% | ≥ 50% | ≥ 50% | ≥ 50% | ≥ 50% | ≥ 50% | ≥ 50% | ≥ 50% |  |  |  |  |  |
| CC1=C(CC(=O)O)c2c(F)cccc2/C1=C\c1cccc(Oc2ccccc2)c1 [C21, (Z)-2-(4-Fluoro-2-methyl-1-(3-phenoxybenzylidene)-1H-inden-3-yl)acetic acid] | < 30% | ≥ 50% | ≥ 50% | < 30% | 30 to 50% | < 30% | < 30% | < 30% | < 30% | < 30% | ≥ 50% | 30 to 50% | 30 to 50% | 30 to 50% | ≥ 50% |  |  |  |  |  |
